Measurements published in patent US5635593A (priority 1995, dated 1997).
Entries after “also recorded” stand apart in the source; their conditions may differ. Numbered stars: 1 amine (or outer) side, 2 acyl side, 3 side chain; on linkers, the order of the positions; unused ones are H or OH. Bridge positions count the residues as written; N and C are the ends. Square brackets hold non-standard residues; d marks the D form. Peptide text beside a SMILES is read from it. I, II: the chains in the order shown. BMH = O=C1CC([*:1])C(=O)N1CCCCCCN1C(=O)CC([*:2])C1=O; Oic = O=C(O)[C@@H]1C[C@@H]2CCCC[C@@H]2N1; Hyp = O=C(O)[C@@H]1C[C@@H](O)CN1; dTic = O=C(O)[C@H]1Cc2ccccc2CN1

Tests used:
BK2 -receptor = molecular target: T1, BK2 -receptor (Rattus norvegicus, UniProt P25023); assay: rat uterus (RU) in vitro, antagonism of BK; conditions: against BK
T1 construct: guinea-pig ileum (GPI), rat uterus (RU) and rabbit jugular vein (RJV); from tissue; host or cells: rat uterus
T1 sequence (P25023 1-396): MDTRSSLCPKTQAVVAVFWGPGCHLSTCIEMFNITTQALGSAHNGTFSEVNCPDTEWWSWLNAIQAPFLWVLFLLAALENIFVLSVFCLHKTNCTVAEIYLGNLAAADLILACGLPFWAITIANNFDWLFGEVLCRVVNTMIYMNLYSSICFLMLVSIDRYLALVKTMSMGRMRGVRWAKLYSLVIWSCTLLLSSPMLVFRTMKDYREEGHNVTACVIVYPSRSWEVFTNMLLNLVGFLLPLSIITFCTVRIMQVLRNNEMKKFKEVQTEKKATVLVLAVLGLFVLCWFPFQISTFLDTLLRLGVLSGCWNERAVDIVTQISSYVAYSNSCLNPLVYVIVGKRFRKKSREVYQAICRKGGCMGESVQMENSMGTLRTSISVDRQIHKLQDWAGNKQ
Protocol: Thus, in vitro studies were performed on standard assay systems, namely, guinea-pig ileum (GPI), rat uterus (RU) and rabbit jugular vein (RJV). […] The potency of each compound was assessed as a pA2 value according to the method of Arunlakshana & Schild, Br. J. Pharmacol. Chemother., 14:48-58 (1959). The pA2 can be defined as the negative logarithm of the molar concentration of the antagonist in the presence of which the potency of the agonist is reduced two-fold, i.e., twice the amount of agonist is required to produce a given response in the presence of, than in the absence of, the antagonist. A high potency of antagonism is indicated by a high pA2 value. i.e., a low concentration of antagonist is effective.
The percentage recovery (% Rec) was also determined for compounds with respect to each assay.
With respect to duration of activity, it is noted that after exposure to the highest concentration of antagonist, each tissue was washed extensively and then assessed for recovery from the antagonist effect.
Potency in the rat uterus assay was assessed as described above and pA2 values determined.

BK1 receptor = molecular target: T2, BK1 receptor (Oryctolagus cuniculus, UniProt P48748); assay: blood pressure response to BK1 agonist in LPS-pretreated rabbits; type: in vivo, rabbit; parameters: from tissue; host or cells: whole animal (rabbit, LPS-pretreated), blood pressure response; key to observed antagonist activity BK1, 1 / observed antagonist activity BK1, 3 / observed antagonist activity BK1, 10: +: complete blockade of the blood pressure response to the appropriate agonist; ±: partial blockade; -: no observable effect at the dose indicated; conditions: for observed antagonist activity BK1, 1: 1 μg kg^-1 min^-1; for observed antagonist activity BK1, 1 / observed antagonist activity BK1, 3 / observed antagonist activity BK1, 10: rabbits given LPS (10 μg) 20 hours before; for observed antagonist activity BK1, 3: 3 μg kg^-1 min^-1; for observed antagonist activity BK1, 10: 10 μg kg^-1 min^-1
T2 sequence (P48748 1-352): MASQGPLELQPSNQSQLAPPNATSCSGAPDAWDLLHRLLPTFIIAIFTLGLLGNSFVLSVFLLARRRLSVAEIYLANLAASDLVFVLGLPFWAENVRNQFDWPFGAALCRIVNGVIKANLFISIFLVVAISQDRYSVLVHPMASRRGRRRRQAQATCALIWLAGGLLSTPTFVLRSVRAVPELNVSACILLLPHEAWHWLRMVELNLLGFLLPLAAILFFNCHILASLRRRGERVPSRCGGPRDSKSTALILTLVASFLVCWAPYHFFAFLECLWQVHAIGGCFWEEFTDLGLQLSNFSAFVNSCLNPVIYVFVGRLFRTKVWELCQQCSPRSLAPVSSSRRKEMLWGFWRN
Source text: (§1) That heterodimeric constructs block the activities attributable to two different receptor populations simultaneously when administered to an intact animal has been known using a standard assay of BK2 and BK1 receptor activity (see, deBlois, Bouthillier, and Marceau, Brit. J. Pharm., 103, 1057-1066, 1991). In normal rabbits, no changes in systemic arterial blood pressure can be detected in response to challenges with BK1 receptor agonists. There is, however, a predictable and reproducible response to BK2 agonists constituatively present. After stimulation with LPS BK1 receptor activity will develop over time such that profound responses to doses of BK1 agonists that were previously inconsequential in nature are observed after a 3-4 hour period. Responses to BK2 agonists are unchanged in these animals. At this point, one can test directly the ability to block both BK1 and BK2 mediated reductions in systemic blood pressure simultaneously with a heterodimeric antagonist.
(§2) FIGS. 8a, b and c comprise actual blood pressure traces from a series of experiments designed to illustrate the ability of a representative heterodimer (CP-0364) to block both BK1 - and BK2 - mediated hypotensive responses simultaneously.
(§3) The expected antagonist activity is based on the data summarized in Tables K and L. The in vivo experimental data reported are qualitative measurements of antagonist activity at three different doses (1, 3 and 10 μg kg^-1 min^-1) in rabbits given a sub-lethal dose of LPS (10 μg), 20 hours before initiation of the experiment.

BK2 receptor = molecular target: T3, BK2 receptor (Oryctolagus cuniculus, UniProt Q28642); assay: blood pressure response to BK2 agonist in LPS-pretreated rabbits; type: in vivo, rabbit; parameters: key to observed antagonist activity BK2, 1 / observed antagonist activity BK2, 3 / observed antagonist activity BK2, 10: +: complete blockade of the blood pressure response to the appropriate agonist; ±: partial blockade; -: no observable effect at the dose indicated; conditions: for observed antagonist activity BK2, 1: 1 μg kg^-1 min^-1; for observed antagonist activity BK2, 1 / observed antagonist activity BK2, 3 / observed antagonist activity BK2, 10: rabbits given LPS (10 μg) 20 hours before; for observed antagonist activity BK2, 3: 3 μg kg^-1 min^-1; for observed antagonist activity BK2, 10: 10 μg kg^-1 min^-1
T3 construct: from tissue; host or cells: whole animal (rabbit, LPS-pretreated), blood pressure response
T3 sequence (Q28642 1-367): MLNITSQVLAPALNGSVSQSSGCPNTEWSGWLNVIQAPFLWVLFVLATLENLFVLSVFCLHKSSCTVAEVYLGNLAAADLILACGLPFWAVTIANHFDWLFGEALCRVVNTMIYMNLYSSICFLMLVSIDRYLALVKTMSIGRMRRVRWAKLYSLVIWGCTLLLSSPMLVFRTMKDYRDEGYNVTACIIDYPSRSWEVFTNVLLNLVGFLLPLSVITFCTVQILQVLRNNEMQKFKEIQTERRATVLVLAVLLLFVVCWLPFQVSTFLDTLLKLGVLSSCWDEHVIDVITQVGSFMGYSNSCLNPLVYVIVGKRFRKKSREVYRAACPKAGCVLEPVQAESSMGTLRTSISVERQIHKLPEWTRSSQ
Source text: as §1, §2, §3

[1] = rabbits after endotoxin pre-treatment, agonist i.v. bolus

SMILES	pA2 rat uterus (BK2) (BK2 -receptor)	observed antagonist activity BK1, 1 (BK1 receptor)	observed antagonist activity BK1, 3 (BK1 receptor)	observed antagonist activity BK1, 10 (BK1 receptor)	observed antagonist activity BK2, 1 (BK2 receptor)	observed antagonist activity BK2, 3 (BK2 receptor)	observed antagonist activity BK2, 10 (BK2 receptor)	block of BK1-mediated hypotensive response (FIG. 8) (BK1 receptor; [1])	block of BK2-mediated hypotensive response (FIG. 8) (BK2 receptor; [1])
CC(C)C[C@H](NC(=O)[C@@H](Cc1ccccc1)NC(=O)[C@H](CSC1CC(=O)N(CCCCCCN2C(=O)CC(SC[C@H](NC(=O)[C@@H](Cc3c[nH]c4ccccc34)NC(=O)[C@H](Cc3ccc(O)cc3)NC(=O)[C@@H](N)CC(=O)O)C(=O)N[C@H](Cc3c[nH]c4ccccc34)C(=O)N[C@H](Cc3c[nH]c4ccccc34)C(=O)N[C@@H](CCCNC(=N)N)C(N)=O)C2=O)C1=O)NC(=O)[C@H](Cc1ccccc1)NC(=O)CNC(=O)[C@@H]1C[C@@H](O)CN1C(=O)[C@@H]1CCCN1C(=O)[C@H](CCCNC(=N)N)NC(=O)[C@H](N)CCCNC(=N)N)C(=O)N[C@@H](CCCNC(=N)N)C(=O)O (some centres unmarked) [CP-0414] (HELM PEPTIDE1{[dR].R.P.[Hyp].G.F.C.[dF].L.R}|PEPTIDE2{D.Y.[dW].C.[dW].[dW].R.[am]}|CHEM1{[O=C1CC([*:1])C(=O)N1CCCCCCN1C(=O)CC([*:2])C1=O]}$PEPTIDE1,CHEM1,7:R3-1:R1|PEPTIDE2,CHEM1,4:R3-1:R2$$$V2.0)	7.8 ± 0.1								
CC(C)C[C@H](NC(=O)[C@@H](Cc1ccccc1)NC(=O)[C@H](CSC1CC(=O)N(CCCCCCN2C(=O)CC(SC[C@H](N)C(=O)N[C@@H](Cc3ccc(O)cc3)C(=O)N[C@H](Cc3c[nH]c4ccccc34)C(=O)N[C@H](C(=O)N[C@H](Cc3c[nH]c4ccccc34)C(=O)N[C@H](Cc3c[nH]c4ccccc34)C(=O)N[C@@H](CCCNC(=N)N)C(N)=O)C(C)C)C2=O)C1=O)NC(=O)[C@H](Cc1ccccc1)NC(=O)CNC(=O)[C@@H]1C[C@@H](O)CN1C(=O)[C@@H]1CCCN1C(=O)[C@H](CCCNC(=N)N)NC(=O)[C@H](N)CCCNC(=N)N)C(=O)N[C@@H](CCCNC(=N)N)C(=O)O (some centres unmarked) [CP-0411] (HELM PEPTIDE1{[dR].R.P.[Hyp].G.F.C.[dF].L.R}|PEPTIDE2{C.Y.[dW].V.[dW].[dW].R.[am]}|CHEM1{[O=C1CC([*:1])C(=O)N1CCCCCCN1C(=O)CC([*:2])C1=O]}$PEPTIDE1,CHEM1,7:R3-1:R1|PEPTIDE2,CHEM1,1:R3-1:R2$$$V2.0)	7.5 ± 0.1								
N=C(N)NCCC[C@@H](N)C(=O)N[C@@H](CCCNC(=N)N)C(=O)N1CCC[C@H]1C(=O)N1C[C@H](O)C[C@H]1C(=O)NCC(=O)N[C@@H](Cc1ccccc1)C(=O)N[C@@H](CSC1CC(=O)N(CCCCCCN2C(=O)CC(SC[C@H](NC(=O)[C@H](N)CCCNC(=N)N)C(=O)N3CCC[C@H]3C(=O)N3C[C@H](O)C[C@H]3C(=O)NCC(=O)N[C@@H](Cc3ccccc3)C(=O)N[C@@H](CO)C(=O)N3Cc4ccccc4C[C@@H]3C(=O)N3[C@H](C(=O)O)C[C@@H]4CCCC[C@@H]43)C2=O)C1=O)C(=O)N1Cc2ccccc2C[C@@H]1C(=O)N1[C@H](C(=O)N[C@@H](CCCNC(=N)N)C(=O)O)C[C@@H]2CCCC[C@@H]21 (some centres unmarked) [CP-0365] (I: H-[dR]RP[Hyp]GFC[dTic][Oic]R-OH / II: H-[dR]CP[Hyp]GFS[dTic][Oic]-OH; linker I:7-II:2 via BMH; N-terminus and C-terminus assumed)		-	+	+	-	+	+		
CC(C)C[C@H](NC(=O)[C@@H]1CCCN1C(=O)[C@H](CO)NC(=O)[C@H](Cc1ccccc1)NC(=O)CNC(=O)[C@@H]1C[C@@H](O)CN1C(=O)[C@@H]1CCCN1C(=O)[C@H](CSC1CC(=O)N(CCCCCCN2C(=O)CC(SC[C@H](NC(=O)[C@H](Cc3ccccc3)NC(=O)CNC(=O)[C@@H]3C[C@@H](O)CN3C(=O)[C@@H]3CCCN3C(=O)[C@H](CCCNC(=N)N)NC(=O)[C@H](N)CCCNC(=N)N)C(=O)N[C@H](Cc3ccccc3)C(=O)N[C@@H](CC(C)C)C(=O)N[C@@H](CCCNC(=N)N)C(=O)O)C2=O)C1=O)NC(=O)[C@@H](N)CCCCN)C(=O)O (some centres unmarked) [CP-0382] (HELM PEPTIDE1{[dR].R.P.[Hyp].G.F.C.[dF].L.R}|PEPTIDE2{K.C.P.[Hyp].G.F.S.P.L}|CHEM1{[O=C1CC([*:1])C(=O)N1CCCCCCN1C(=O)CC([*:2])C1=O]}$PEPTIDE1,CHEM1,7:R3-1:R1|PEPTIDE2,CHEM1,2:R3-1:R2$$$V2.0; N-terminus and C-terminus assumed)	Agonist; also recorded: substantial partial agonism								
CC(C)C[C@H](NC(=O)[C@@H]1CCCN1C(=O)[C@H](CO)NC(=O)[C@H](Cc1ccccc1)NC(=O)CNC(=O)[C@@H]1C[C@@H](O)CN1C(=O)[C@@H]1CCCN1C(=O)[C@H](CSC1CC(=O)N(CCCCCCN2C(=O)CC(SC[C@H](NC(=O)[C@H](Cc3ccccc3)NC(=O)CNC(=O)[C@@H]3C[C@@H](O)CN3C(=O)[C@@H]3CCCN3C(=O)[C@H](CCCNC(=N)N)NC(=O)[C@H](N)CCCNC(=N)N)C(=O)N[C@H](Cc3ccccc3)C(=O)N[C@@H](CC(C)C)C(=O)N[C@@H](CCCNC(=N)N)C(=O)O)C2=O)C1=O)NC(=O)[C@H](N)CCCNC(=N)N)C(=O)O (some centres unmarked) [CP-0364] (HELM PEPTIDE1{[dR].R.P.[Hyp].G.F.C.[dF].L.R}|PEPTIDE2{[dR].C.P.[Hyp].G.F.S.P.L}|CHEM1{[O=C1CC([*:1])C(=O)N1CCCCCCN1C(=O)CC([*:2])C1=O]}$PEPTIDE1,CHEM1,7:R3-1:R1|PEPTIDE2,CHEM1,2:R3-1:R2$$$V2.0; N-terminus and C-terminus assumed)		+	+	+	+	+	+	capable of blocking the response profile to both agonists simultaneously	capable of blocking the response profile to both agonists simultaneously
CC(C)C[C@H](NC(=O)[C@@H]1CCCN1C(=O)[C@H](CO)NC(=O)[C@H](Cc1ccccc1)NC(=O)CNC(=O)[C@@H]1CCCN1C(=O)[C@@H]1CCCN1C(=O)[C@H](CCCNC(=N)N)NC(=O)[C@@H](N)CCCCN)C(=O)O [CP-0298, des ARG^9-[LYS^0, LEU^8]-BK, reference compound]		+	+	+	-	-	-		
